Source: PMC7531601, “Exploiting Lactoferricin (17–30) as a Potential Antimicrobial and Antibiofilm Candidate Against Multi-Drug-Resistant Enteroaggregative Escherichia coli” (Frontiers in Microbiology, 2020)
Where two headings read alike, the source gives them in different places. Ends that are not written are not given here.

Tested on: MDR-EAEC isolates
Description: Initially, characterization of Lfcin (17–30) was performed by determining its minimum inhibitory concentration (MIC), minimum bactericidal concentration (MBC), in vitro stability assays (high-end temperatures, the physiological concentration of cationic salts and proteases), and in vitro safety assays (sheep erythrocyte hemolysis and secondary cell line cytotoxicity) (Supplementary Files S1–S3). The membrane permeabilization effect of Lfcin (17–30) was assessed by flow cytometry, whereas outer and inner membrane permeability of MDR-EAEC strains treated with 1 × and 2 × MIC levels of Lfcin (17–30) was carried out based on the nitrocefin activity as well as the release of cytoplasmic β-galactosidase activity, respectively (Supplementary File S4). Further, Lfcin (17–30) was evaluated for its antibacterial activity against beneficial lactobacilli (L. acidophilus MTCC 10307 and L. rhamnosus MTCC 1408) (Supplementary File S5).
To explore the utility of Lfcin (17-30) as a therapeutic molecule, in vitro stability was evaluated by exposing it to high-end temperatures, proteases as well as the physiological concentration of salts. In brief, the effect of temperature was investigated by incubating Lfcin (17-30) at 70 °C and 90 °C for 5, 15, and 30 min followed by measuring the MIC value. The effect of proteases (trypsin and proteinase-K) on the antimicrobial activity of Lfcin (17-30) [Protease: AMP- 1:100 (w/w)] was investigated by incubating with the respective protease at 37 °C for 30 sec, 2, 5, 15 and 30 min, followed by inactivating the enzyme at 90 °C for 10 min and measuring the MIC value. The stability of Lfcin (17-30) in the presence of high salt concentrations (150 mM and 2 mM MgCl2) was estimated in regular MH broth. Appropriate controls were included in each experiment.

[1] = MgCl2 (2 mM), regular MH broth, MDR 1
[2] = MgCl2 (2 mM), regular MH broth, MDR 2
[3] = MgCl2 (2 mM), regular MH broth, MDR 3
[4] = NaCl (150 mM), regular MH broth, MDR 1
[5] = NaCl (150 mM), regular MH broth, MDR 2
[6] = NaCl (150 mM), regular MH broth, MDR 3
[7] = peptide incubated at 70°C for 5 min, MDR 1
[8] = peptide incubated at 70°C for 5 min, MDR 2
[9] = peptide incubated at 70°C for 5 min, MDR 3
[10] = peptide incubated at 70°C for 15 min, MDR 1
[11] = peptide incubated at 70°C for 15 min, MDR 2
[12] = peptide incubated at 70°C for 15 min, MDR 3
[13] = peptide incubated at 70°C for 30 min, MDR 1
[14] = peptide incubated at 70°C for 30 min, MDR 2
[15] = peptide incubated at 70°C for 30 min, MDR 3
[16] = peptide incubated at 90°C for 5 min, MDR 1
[17] = peptide incubated at 90°C for 5 min, MDR 2
[18] = peptide incubated at 90°C for 5 min, MDR 3
[19] = peptide incubated at 90°C for 15 min, MDR 1
[20] = peptide incubated at 90°C for 15 min, MDR 2
[21] = peptide incubated at 90°C for 15 min, MDR 3
[22] = peptide incubated at 90°C for 30 min, MDR 1
[23] = peptide incubated at 90°C for 30 min, MDR 2
[24] = peptide incubated at 90°C for 30 min, MDR 3
[25] = proteinase-K 1:100 (w/w), 37°C, 2 min, MDR 1
[26] = proteinase-K 1:100 (w/w), 37°C, 2 min, MDR 2

FKCRRWQWRMKKLG [Lfcin (17–30)] gave an MBC [1] of 32.0 µg/mL, an MIC [1] of 32.0 µg/mL and an MBC [2] of 32.0 µg/mL. For the same sequence, the MIC [2] was 32.0 µg/mL, the MBC [3] was 32.0 µg/mL and the MIC [3] was 32.0 µg/mL. For the same sequence, the MBC [4] was 32.0 µg/mL, the MIC [4] was 32.0 µg/mL and the MBC [5] was 32.0 µg/mL. The MIC [5] was 32.0 µg/mL, the MBC [6] was 32.0 µg/mL and the MIC [6] was 32.0 µg/mL. For the same sequence, the MBC [7] was 32.0 µg/mL, the MIC [7] was 32.0 µg/mL and the MBC [8] was 32.0 µg/mL. The MIC [8] was 32.0 µg/mL, the MBC [9] was 32.0 µg/mL and the MIC [9] was 32.0 µg/mL. For the same sequence, the MBC [10] was 32.0 µg/mL, the MIC [10] was 32.0 µg/mL and the MBC [11] was 32.0 µg/mL. For the same sequence, the MIC [11] was 32.0 µg/mL, the MBC [12] was 32.0 µg/mL and the MIC [12] was 32.0 µg/mL. It also gave an MBC [13] of 32.0 µg/mL, an MIC [13] of 32.0 µg/mL and an MBC [14] of 32.0 µg/mL. The MIC [14] was 32.0 µg/mL, the MBC [15] was 32.0 µg/mL and the MIC [15] was 32.0 µg/mL. For the same sequence, the MBC [16] was 32.0 µg/mL, the MIC [16] was 32.0 µg/mL and the MBC [17] was 32.0 µg/mL. The MIC [17] was 32.0 µg/mL, the MBC [18] was 32.0 µg/mL and the MIC [18] was 32.0 µg/mL. For the same sequence, the MBC [19] was 32.0 µg/mL, the MIC [19] was 32.0 µg/mL and the MBC [20] was 32.0 µg/mL. The MIC [20] was 32.0 µg/mL, the MBC [21] was 32.0 µg/mL and the MIC [21] was 32.0 µg/mL. It also gave an MBC [22] of 32.0 µg/mL, an MIC [22] of 32.0 µg/mL and an MBC [23] of 32.0 µg/mL. The MIC [23] was 32.0 µg/mL, the MBC [24] was 32.0 µg/mL and the MIC [24] was 32.0 µg/mL. The MBC (proteinase-K 1:100 (w/w), 37°C, 0.5 min, MDR 1) was 16.0 µg/mL, the MBC (proteinase-K 1:100 (w/w), 37°C, 0.5 min, MDR 2) was 32.0 µg/mL and the MBC (proteinase-K 1:100 (w/w), 37°C, 0.5 min, MDR 3) was 4.0 µg/mL. For the same sequence, the MBC [25] was 16.0 µg/mL, the MIC [25] was 8.0 µg/mL and the MBC [26] was 32.0 µg/mL. The MIC [26] was 8.0 µg/mL.
